Results from US9446061B2, “Composition containing antibiotics and lysophosphatidylcholine for boosting immunity or treatment of bacterial infections” (priority 2011, dated 2016).

How the values were obtained:
[1] = system: CPA-CLP sepsis mouse model; test: Effects of LPC, LPC isomers, Xigris and DW286aa on mortalities/survivabilities in CPA-CLP sepsis mouse model (SEP009); single i.v. 6 hrs after CLP; type: in vivo
Experimental: (§1) CPA is well known as an immunosuppressive agent. […] Then, the abdomen was closed following the general procedure.
Then, body weight and mortality changes were observed.
In the Sham and CLP control groups, 10 ml/kg of only sterile physiological saline was single intravenously dosed.

[2] = system: CPA-CLP mice; test: Mortality of CPA-CLP mice, LPC and DW286AA alone or combined (Example 9); s.c. 4 times 12-hr intervals from 6 hrs after CLP; type: in vivo, ICR mice; details: for Survival rate: LPC 1, DW286 0.5, Mix 0.75 mg/kg; for survival rates (survivors/total in brackets), Table 13: mg/kg: LPC 1, LPC + DW286 0.5 + 0.25, DW286/LPC 0.5/1.0, LPC/DW286 1.0/0.5, DW286 0.5
Source text: as §1

[3] = system: CPA-induced immunosuppressive mice; test: Thymus and spleen organ weights in CPA-treated mice; type: in vivo, ICR mice; details: LPC 1, DW286 0.5, Mix 0.75 mg/kg
Experimental: At sacrifice of CPA-treated model, the wet-weights of spleen and thymus were measured and regarded as absolute weight and then relative organ weight (% of body weight) was calculated as follow:
=[(Absolute organ weights/Body weight at sacrifice individual)×100]

[4] = system: blood WBC; test: Blood WBC numbers and differential counts in CPA-treated mice; type: in vivo, ICR mice; details: LPC 1, DW286 0.5, Mix 0.75 mg/kg
Experimental: Blood were collected at sacrifice of CPA-treated model from vena cava and total blood leukocyte numbers were calculated using counting chamber, diluting pipette and Türk solution as dilution solution. All numbers were calculated as ×10^3/mm^3. In addition, cell numbers of lymphocytes, eosinophils, neutrophils, monocytes and basophils were calculated among 100 total leukocytes in smear blood samples stained with Giemsa.

[5] = system: splenic CD3+, CD4+, CD8+ and TNF-α+ cells; test: Immunohistochemistry of spleen in CPA-treated mice; type: in vivo, ICR mice
Experimental: After deparraffinized, CD3 epitope retrievals were conducted in 10 mM Tris-1 mM EDTA Buffer (pH 9.0), CD4 and CD8 in 1 mM EDTA Buffer (pH 8.0), and TNF-α in 10 mM Citrate Buffer (pH 6.0) as previous methods. Primary anti-antibodies used in the invention were as following table.
The water bath with a staining dish, containing a buffer, was preheated until the temperature reached 95-100. The staining dish was placed at room temperature and the slides were cooled for 20 minutes. After epitope retrivals, sections were immunostained as following steps
First, the sections were incubated with methanol and 0.3% H2O2 for 30 min to block endogenous peroxidase activity at room temperature, and then rinsed three times in 0.01M phosphate buffered saline (PBS; pH 7.2) for 3 times. Then, the sections were incubated with the normal horse serum blocking solution (Vector Lab. Inc., CA, USA., dilution 1:100) for 1 hr at room temperature in a humidity chamber, to block non-specific binding of immunoglobulin, and then rinsed three times in 0.01M PBS. The sections were incubated with four types of primary antisera for 12 hrs at 4 in a humidity chamber, and then rinsed three times in 0.01M PBS. The sections were incubated with universal biotinylated secondary antibody for 1 hr at room temperature in a humidity chamber, and then rinsed three times in 0.01M PBS. The sections were incubated with ABC reagents (Vectastain Elite ABC Kit, Vector Lab. Inc., CA, USA. Dilution 1:50) for 1 hr at room temperature in a humidity chamber, and then rinsed three times in 0.01M PBS. The sections were incubated in the peroxidase substrate kit (Vector Lab. Inc., CA) for 30 seconds at room temperature, and then rinsed three times in 0.01M PBS. The sections were counterstained with the Mayer's hematoxylin solution, and then rinsed in running tap water for 30 minutes. The sections were dehydrated through 95% ethanol for 2 min and 100% ethanol for […], and then rinsed in xylene for 2 hrs. After that, the sections were observed using a cover slip with permanent mounting medium under the light microscope (Zeiss, Germany).
Histomorphometry—Among 1000 splenic or thymic cells, the numbers (N) of immunoreactive cells (CD3+, CD4+, CD8+, and TNF-α+) were observed as N/1000 splenocytes or thymocytes using automated image analysis. In thymus, the counts were conducted in the both cortex and medulla separately.

[6] = LPC, LPC18:0, LPC18:1, LPA 5 mpk, Xigris 0.4 mpk, DW286aa 10 mpk, 1st CPA treat
[7] = LPC, LPC18:0, LPC18:1, LPA 5 mpk, Xigris 0.4 mpk, DW286aa 10 mpk, 2nd CPA treat
[8] = LPC, LPC18:0, LPC18:1, LPA 5 mpk, Xigris 0.4 mpk, DW286aa 10 mpk, At CLP (day 0)
[9] = LPC, LPC18:0, LPC18:1, LPA 5 mpk, Xigris 0.4 mpk, DW286aa 10 mpk, Day 1
[10] = LPC, LPC18:0, LPC18:1, LPA 5 mpk, Xigris 0.4 mpk, DW286aa 10 mpk, Day 2
[11] = LPC, LPC18:0, LPC18:1, LPA 5 mpk, Xigris 0.4 mpk, DW286aa 10 mpk, Day 3
[12] = LPC, LPC18:0, LPC18:1, LPA 5 mpk, Xigris 0.4 mpk, DW286aa 10 mpk, Day 4
[13] = LPC, LPC18:0, LPC18:1, LPA 5 mpk, Xigris 0.4 mpk, DW286aa 10 mpk, Day 5
[14] = LPC, LPC18:0, LPC18:1, LPA 5 mpk, Xigris 0.4 mpk, DW286aa 10 mpk, Day 6
[15] = LPC, LPC18:0, LPC18:1, LPA 5 mpk, Xigris 0.4 mpk, DW286aa 10 mpk, Day 7
[16] = LPC, LPC18:0, LPC18:1, LPA 5 mpk, Xigris 0.4 mpk, DW286aa 10 mpk, Day 8
[17] = LPC, LPC18:0, LPC18:1, LPA 5 mpk, Xigris 0.4 mpk, DW286aa 10 mpk, Day 9
[18] = LPC, LPC18:0, LPC18:1, LPA 5 mpk, Xigris 0.4 mpk, DW286aa 10 mpk, Day 10
[19] = LPC, LPC18:0, LPC18:1, LPA 5 mpk, Xigris 0.4 mpk, DW286aa 10 mpk, Total
[20] = Xigris 2 mpk, DW286aa 20 mpk, 1st CPA treat
[21] = Xigris 2 mpk, DW286aa 20 mpk, 2nd CPA treat
[22] = Xigris 2 mpk, DW286aa 20 mpk, At CLP (day 0)
[23] = Xigris 2 mpk, DW286aa 20 mpk, Day 1
[24] = Xigris 2 mpk, DW286aa 20 mpk, Day 2
[25] = Xigris 2 mpk, DW286aa 20 mpk, Day 3
[26] = Xigris 2 mpk, DW286aa 20 mpk, Day 4
[27] = Xigris 2 mpk, DW286aa 20 mpk, Day 5
[28] = Xigris 2 mpk, DW286aa 20 mpk, Day 6
[29] = Xigris 2 mpk, DW286aa 20 mpk, Day 7
[30] = Xigris 2 mpk, DW286aa 20 mpk, Day 8
[31] = Xigris 2 mpk, DW286aa 20 mpk, Day 9
[32] = Xigris 2 mpk, DW286aa 20 mpk, Day 10
[33] = Xigris 2 mpk, DW286aa 20 mpk, Total
[34] = LPC 1, DW286 0.5, Mix 0.75 mg/kg
[35] = spleen, CPA-treated mice, Mean ± S.D., n = 9

Compound: CON=C1CN(c2nc3c(cc2F)c(=O)c(C(=O)O)cn3C2CC2)CC1(C)CN.Cl (stereo not shown) [DW286aa, 7-[3-(aminomethyl)-4-(methoxyimino)-3-methyltetrahydro-1H-1-pyrrolyl]-1-cyclopropyl-6-fluoro-4-oxo-1,4-dihydro[1,8]naphthyridine-3-carboxylic acid hydrochloric acid salt]
- Mortalities [1, 6]: 0
- survivabilities [1, 6]: 100%
- Mortalities [1, 7]: 0
- survivabilities [1, 7]: 100%
- Mortalities [1, 8]: 0
- survivabilities [1, 8]: 100%
- Mortalities [1, 9]: 1
- survivabilities [1, 9]: 90%
- Mortalities [1, 10]: 2
- survivabilities [1, 10]: 70%
- Mortalities [1, 11]: 0
- survivabilities [1, 11]: 70%
- Mortalities [1, 12]: 0
- survivabilities [1, 12]: 70%
- Mortalities [1, 13]: 0
- survivabilities [1, 13]: 70%
- Mortalities [1, 14]: 0
- survivabilities [1, 14]: 70%
- Mortalities [1, 15]: 2
- survivabilities [1, 15]: 50%
- Mortalities [1, 16]: 1
- survivabilities [1, 16]: 40%
- Mortalities [1, 17]: 1
- survivabilities [1, 17]: 30%
- Mortalities [1, 18]: 0
- survivabilities [1, 18]: 30%
- Mortalities [1, 19]: 7
- survivabilities [1, 19]: 30%
- Mortalities [1, 20]: 0
- survivabilities [1, 20]: 100%
- Mortalities [1, 21]: 0
- survivabilities [1, 21]: 100%
- Mortalities [1, 22]: 0
- survivabilities [1, 22]: 100%
- Mortalities [1, 23]: 0
- survivabilities [1, 23]: 100%
- Mortalities [1, 24]: 1
- survivabilities [1, 24]: 90%
- Mortalities [1, 25]: 1
- survivabilities [1, 25]: 80%
- Mortalities [1, 26]: 0
- survivabilities [1, 26]: 80%
- Mortalities [1, 27]: 0
- survivabilities [1, 27]: 80%
- Mortalities [1, 28]: 2
- survivabilities [1, 28]: 60%
- Mortalities [1, 29]: 1
- survivabilities [1, 29]: 50%
- Mortalities [1, 30]: 0
- survivabilities [1, 30]: 50%
- Mortalities [1, 31]: 1
- survivabilities [1, 31]: 40%
- Mortalities [1, 32]: 1
- survivabilities [1, 32]: 30%
- Mortalities [1, 33]: 7
- survivabilities [1, 33]: 30%
- Survival rate ([2]; 1 day after CLP): 100%
- survival rates (survivors/total in brackets), Table 13 ([2]; 1 day after dosing): 100 (9/9)
- Survival rate ([2]; 2 days after CLP): 44.44%
- survival rates (survivors/total in brackets), Table 13 ([2]; 2 days after dosing): 44 (4/9)
- Survival rate ([2]; 3 days after CLP): 33.33%
- survival rates (survivors/total in brackets), Table 13 ([2]; 3 days after dosing): 33 (3/9)
- Survival rate ([2]; 4 days after CLP): 0%
- survival rates (survivors/total in brackets), Table 13 ([2]; 4 days after dosing): 0 (0/9)
- Survival rate ([2]; 5 days after CLP): 0%
- Survival rate ([2]; At CLP): 100%
- survival rates (survivors/total in brackets), Table 13 ([2]; Dosing Day 0): 100 (9/9)
- Survival rate ([2]; Total): 100%
- Spleen weight, Relative ([3]; % of body weight at sacrifice): 0.117 ± 0.023 %
- Thymus weight, Relative ([3]; % of body weight at sacrifice): 0.082 ± 0.018 %
- absolute splenic weights, change compared to CPA control [3]: −7.08%
- absolute thymic weights, change compared to CPA control [3]: −2.73%
- relative splenic weights, change compared to CPA control [3]: −7.46%
- relative thymic weights, change compared to CPA control [3]: −3.12%
- Spleen weight, Absolute ([3]; at sacrifice): 0.045 ± 0.009 g
- Thymus weight, Absolute ([3]; at sacrifice): 0.032 ± 0.008 g
- blood total WBC numbers, change compared to CPA control [4]: −11.31%
- ratio of lymphocytes, change compared to CPA control [4]: −23.56%
- ratio of monocytes, change compared to CPA control [4]: 13.43%
- ratio of neutrophils, change compared to CPA control [4]: −1.09%
- Total WBC ([4]; blood at sacrifice): 0.41 ± 0.19 ×10^3/mm^3
- WBC differentials: Basophils ([4]; blood at sacrifice): 0.89 ± 0.78%
- WBC differentials: Eosinophils ([4]; blood at sacrifice): 0.22 ± 0.44%
- WBC differentials: Lymphocytes ([4]; blood at sacrifice): 14.56 ± 9.75 %
- WBC differentials: Monocytes ([4]; blood at sacrifice): 42.78 ± 17.33 %
- WBC differentials: Neutrophils ([4]; blood at sacrifice): 41.56 ± 10.64 %
- numbers of splenic CD3+ cells, change compared to CPA control [5, 34]: −14.02%
- numbers of splenic CD4+ cells, change compared to CPA control [5, 34]: −10.82%
- numbers of splenic CD8+ cells, change compared to CPA control [5, 34]: −10.63%
- splenic TNF-α+ cells, change compared to CPA control [5, 34]: −13.840%
- CD3+ cells, Spleen (IHC-Histomorphometry) [5, 35]: 55.89 N/1000 splenocytes or thymocytes
- CD4+ cells, Spleen (IHC-Histomorphometry) [5, 35]: 41.22 N/1000 splenocytes or thymocytes
- CD8+ cells, Spleen (IHC-Histomorphometry) [5, 35]: 45.78 N/1000 splenocytes or thymocytes
- TNF-α+ cells, Spleen (IHC-Histomorphometry) [5, 35]: 40.11 N/1000 splenocytes or thymocytes
